In publication PMC4865847, “Putative histidine kinase inhibitors with antibacterial effect against multi-drug resistant clinical isolates identified by in vitro and in silico screens” (Scientific Reports, 2016):
pIC50: −log10 of the molar value. Read-outs that look alike come from different tables or passages of the source.

Legend:
S. pneumoniae WalK = molecular target: T1, S. pneumoniae WalK (Streptococcus pneumoniae, UniProt Q8DPL8); test: In vitro autophosphorylation kinase assay with γ-32P-ATP, WalK; type: biochemical
T1 construct: WalK (amino acids from 208 to 449); N-terminal His6-3C site of vector pOPINF (own knowledge of the vector); made in house; host or cells: E. coli RIL
Procedure, shortened: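 Autophosphorylation, initiated with γ-32P-ATP (0.1 μCi/μl; 0.03–0.06 μM ATP final), quenched with SDS/EDTA sample buffer, resolved by SDS-PAGE and quantified by phosphor-imaging. ≈4 μM kinase, fragments up to 20 mM, pH 8.5 Tris buffer with Mg2+; DMSO-matched ligand-free controls.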

Pseudomonas aeruginosa = test: Antibacterial susceptibility testing (MIC), P. aeruginosa; type: cell-based; conditions: strain ATCC 27853; for MIC: Pseudomonas aeruginosa, ATCC27853
Procedure: (§1) Bacterial strains used in this study for antibacterial susceptibility testing (Table S5) were propagated using standard microbiological procedures. Minimal inhibitory concentrations (MICs) were determined following a standard double-dilution method. MICs were recorded as the lowest concentration of the compound where no visible growth was observed. After plating the dilutions around the MIC or growing them in fresh MH media, minimal bactericidal concentration (MBC) was recorded as the lowest concentration of the compound at which no colonies were formed or no growth was observed, respectively. For S. pneumoniae MICs were determined by adapting the standard double-dilution method to anaerobic conditions and of this microorganism (use of Todd Hewitt Yeast extract with 200 U/mL of catalase and continuous monitoring of growth).

HK NblS (CA domain) = test: Differential scanning fluorimetry (DSF), NblS; type: binding, Synechococcus sp. PCC 7942
Procedure: (§2) To monitor protein unfolding, the fluorescent dye Sypro orange was used[26]. Differential scanning fluorimetry (DSF) experiments were conducted in the iCycleriQ Real Time Detection System (Bio-Rad, Hercules, CA). Solutions of 20 μl of 0.1 mg/ml protein (final concentration), 200 μM fragment cocktails or individual fragments (final concentration), 10X sypro orange (final concentration) and buffer (100 mM TrisCl pH 8, 150 mM NaCl) were added to the wells of the 96-well iCycler iQ PCR plate. The plate was heated from 20 to 85 or 99 °C at a heating rate of 1 °C/min. The fluorescent intensity was measured with Ex/Em: 490/530 nm. Prism GraphPad v.5 was used for curve fitting and statistical analysis.

[1] = molecular target: T2, HK WalK (DHp and CA domain) (Streptococcus pneumoniae, UniProt Q8DPL8); test: Differential scanning fluorimetry (DSF), WalK; type: binding
T2 construct: WalK (amino acids from 208 to 449); N-terminal His6-3C site of vector pOPINF (own knowledge of the vector); made in house; host or cells: E. coli RIL
Procedure: as §2

E. coli PhoR (PhoR^E) = molecular target: T3, E. coli PhoR (PhoR^E) (Escherichia coli, UniProt P08400); test: Aggregation analysis by native-PAGE, PhoR^E; conditions: 2 mM (S5 and S6 5 mM), 10% DMSO
T3 construct: The catalytic portion (DHp and CA domain) of E. coli PhoR (PhoR^E); made in house; host or cells: E. coli RIL
Procedure: (§3) E. coli PhoR and EnvZ, and S. aureus PhoR ([…], final concentration) were prepared in kinase buffer. […] DMSO in the assays was maintained to a final concentration 10% (v/v). After 30 min of incubation at room temperature Native polyacrylamide gel electrophoresis (Native-PAGE) loading buffer was added and samples loaded. Coomassie blue staining was used for protein visualization.

Escherichia coli = test: Antibacterial susceptibility testing (MIC/MBC), E. coli; type: cell-based; conditions: Escherichia coli
Procedure: Minimal inhibitory concentrations (MICs) were determined following a standard double-dilution method. […] For S. pneumoniae MICs were determined by adapting the standard double-dilution method to anaerobic conditions and of this microorganism (use of Todd Hewitt Yeast extract with 200 U/mL of catalase and continuous monitoring of growth).

E. coli EnvZ = molecular target: T4, E. coli EnvZ (Escherichia coli, UniProt P0AEJ4); test: Aggregation analysis by native-PAGE, EnvZ; conditions: 2 mM, 10% DMSO
T4 construct: The catalytic portion (DHp and CA domain) of E. coli PhoR (PhoR^E), E. coli EnvZ; made in house; host or cells: E. coli RIL
Procedure: as §3

Gram negative strains = test: Antibacterial susceptibility testing, Gram negative strains (summary); type: cell-based; conditions: read-out: MIC Gram negative
Procedure: as §1

NCI-60 tumor cell lines = tested on: NCI-60 tumor cell lines; parameters: method as in PMID 11121759; conditions: 2.72 μg/ml (10 μM), one dose; maximum over cell lines; cited from earlier work
Gram positive strains = test: Antibacterial susceptibility testing, Gram positive strains (summary); type: cell-based
Procedure: as §1

[2] = ATCC25276, strain ATCC 25276, read-out: MIC E. coli ATCC 25276
[3] = strain CFT 073, read-out: MIC E. coli CFT 073

T3 sequence (P08400 210-425): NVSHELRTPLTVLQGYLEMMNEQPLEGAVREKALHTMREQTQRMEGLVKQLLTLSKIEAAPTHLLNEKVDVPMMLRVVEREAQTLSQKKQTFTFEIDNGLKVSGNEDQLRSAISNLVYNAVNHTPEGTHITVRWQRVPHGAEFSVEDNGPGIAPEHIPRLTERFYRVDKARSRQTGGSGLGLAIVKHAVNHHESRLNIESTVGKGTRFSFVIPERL
T1 sequence (Q8DPL8 208-449): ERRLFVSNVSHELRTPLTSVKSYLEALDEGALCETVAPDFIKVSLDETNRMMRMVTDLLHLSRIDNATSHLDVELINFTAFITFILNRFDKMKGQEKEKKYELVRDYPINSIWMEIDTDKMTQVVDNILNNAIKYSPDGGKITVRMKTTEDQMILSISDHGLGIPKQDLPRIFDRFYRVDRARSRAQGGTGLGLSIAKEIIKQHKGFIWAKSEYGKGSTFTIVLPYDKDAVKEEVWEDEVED
T4 sequence (P0AEJ4 240-440): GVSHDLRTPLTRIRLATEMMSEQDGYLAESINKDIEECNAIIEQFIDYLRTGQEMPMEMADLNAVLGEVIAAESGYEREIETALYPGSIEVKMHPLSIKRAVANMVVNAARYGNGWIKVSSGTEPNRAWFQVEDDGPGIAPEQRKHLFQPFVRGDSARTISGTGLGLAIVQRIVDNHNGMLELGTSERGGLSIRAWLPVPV
T2 sequence (Q8DPL8 208-449): as the sequence (Q8DPL8 208-449) above

| SMILES | pIC50 (S. pneumoniae WalK; autophosphorylation, one time point (30 sec), 10% DMSO, read-out: IC50 WalK) | inhibitory capacity for WalK autophosphorylation activity (S. pneumoniae WalK; single concentration 5 mM, 30 sec) | MIC (Pseudomonas aeruginosa) [µg/mL] | increase of NblS Tm (HK NblS (CA domain)) [°C] | increase of WalK Tm [1] [°C] | HK aggregation, PhoR^E (E. coli PhoR (PhoR^E)) | MIC (Escherichia coli; [2]) [µg/mL] | MIC (Escherichia coli; [3]) [µg/mL] | HK aggregation, EnvZ (E. coli EnvZ) | MIC P. aeruginosa ATCC 27853 (Pseudomonas aeruginosa) [µg/mL] | MIC (Gram negative strains) [µg/mL] | growth inhibition of NCI-60 cell lines (NCI-60 tumor cell lines) [%] | MBC (Gram positive strains; Staphylococcus aureus, MRSA, summary, read-out: MBCs against Gram-positives, including multi-drug resistant MRSA) [µg/mL] | MIC (Gram positive strains; summary over Gram positive strains) [µg/mL] |
| --- | --- | --- | --- | --- | --- | --- | --- | --- | --- | --- | --- | --- | --- | --- |
| Nc1nc(-c2ccc(Br)cc2)cs1 [F1, 4-(4-bromophenyl)-1,3-thiazol-2-amine] | < 2.70 | weak inhibitory capacity | > 500 | 2.1 | 4.5 | do not cause HK aggregation | > 500 | > 500 | do not cause HK aggregation |  |  |  |  |  |
| CC(=O)Nc1cccc(-c2ccccc2Cl)c1 [S1.7, N-[3-(2-chlorophenyl)phenyl]acetamide] |  |  | > 500 |  |  | do not cause HK aggregation | > 500 | > 500 |  | >500 |  |  |  |  |
| CC[C@H](c1ccc(O)cc1)[C@@H](CC)c1ccc(F)cc1 [S1.13, 4-[(3S,4R)-4-(4-fluorophenyl)hexan-3-yl]phenol] |  |  | > 500 |  |  | do not cause HK aggregation | > 500 | > 500 |  | >500 | > 500 | ≤ 19 | ≤ 16 | ≥ 8 |
| CC(C)(C)c1ccc(O)c(CNc2ccccc2)c1 [S1.14, 4-tert-butyl-2-[(phenylamino)methyl]phenol] |  |  | > 500 |  |  | do not cause HK aggregation | > 500 | > 500 |  | >500 |  |  |  |  |
